Source: patent publication US20210395235A1, “COMPOUND AS TGF-beta R1 INHIBITOR AND APPLICATION THEREOF” (NANJING SANHOME PHARMACEUTICAL CO., LTD., priority 2018, published 2021)

Legend:
ALK5 = target: T1, ALK5 (Homo sapiens, UniProt P36897); assay: In vitro activity against ALK5 kinase (ADP-Glo Kinase Assay); assay type: biochemical; conditions: 28° C. 120 minutes
T1 construct: purchased Carna 09-141
T1 sequence (P36897 162-503 limits assumed): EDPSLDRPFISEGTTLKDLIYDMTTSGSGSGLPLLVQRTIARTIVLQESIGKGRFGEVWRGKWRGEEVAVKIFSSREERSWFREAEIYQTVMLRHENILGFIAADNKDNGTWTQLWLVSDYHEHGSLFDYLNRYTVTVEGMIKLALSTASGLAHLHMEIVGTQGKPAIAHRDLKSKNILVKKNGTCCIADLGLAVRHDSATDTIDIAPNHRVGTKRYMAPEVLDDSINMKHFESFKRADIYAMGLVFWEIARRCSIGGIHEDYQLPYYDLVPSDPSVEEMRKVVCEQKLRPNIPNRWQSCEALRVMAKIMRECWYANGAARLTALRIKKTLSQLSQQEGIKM
Procedure: For the compounds of the present disclosure prepared in the above examples, each compound was prepared into 10 mM with DMSO, and then diluted to 3.333 μM, 1.111 μM, 370 nM, 123 nM, 41 nM, 14 nM, 4.6 nM, 1.5 nM and 0.5 nM successively.
Reagents: ALK5, Cat. No. 09-141, purchased from Carna; p38α, Cat. No. 04-152, purchased from the Carna; TGFβR1 peptides, Cat. No. T36-58, purchased from SignalChem; dimethyl sulfoxide (DMSO), purchased from Sigma, US; EDTA, purchased from Sigma, US; and ADP-Glo Kinase Assay, Cat. No. v9102/3, 1×Kinase buffer (40 mM Tris, pH7.5, 0.10% BSA, 20 mM MgCl2, 1 mM DTT), purchased from Promega, and prepared immediately before use.
2.2.1.1 Preparation of 50-fold compounds: The compounds were prepared into 500 μM, 50-fold concentration as the final concentration 10 μM for detecting the compounds, which was performed as following: into a second well of a 96-well plate, 95 μl of 100% DMSO was added, and then 5 μl of the 10 mM compound solution was added, to prepare a […] compound solution; into other wells, 60 μl of 100% DMSO was added; from the second well, 30 μl of the compound was drawn out and added into a third well; such 3-fold serial dilution was continued successively until 10 dilutions of concentration were made.
The kinase was added to a 1× kinase buffer, to form a 2× enzyme solution. 2.5 μl of the 2× enzyme solution was added to a 384-well reaction plate which already contained 100 nl of 100% DMSO-dissolved compound, to incubate at room temperature for 10 minutes.
FAM labeled peptides and ATP were added to the 1× kinase buffer, to form a 2× substrate solution. 2.5 μl of the 2× substrate solution was added to the 384-well reaction plate.
The 384-well plate was incubated at 28° C. for 120 minutes.
2.5.1 An ADP-Glo reagent was equilibrated to room temperature.
2.5.2 5 μl of the reaction solution was transferred into a reaction well at another new 384-well plate.
2.5.3 5 μl of the ADP-Glo reagent was transferred into the reaction well at the 384-well plate to stop the reaction.
2.5.4 An incubation was performed at 28° C. for 120 minutes.
2.5.5 10 μl of a kinase detection reagent was transferred into each reaction well, shaken for 1 minute, and was allowed to stand for 30 minutes at room temperature.
The luminescence value of the sample was read from Envision.
2.7.1 Luminescence reading data were copied from the Envision program.
2.7.2 The values of the luminescence reading were converted into the percent inhibition by the following formula.
Percent inhibition=(max−sample RLU)/(max−min)×100, where “min” stands for the fluorescence reading of the control sample with no enzyme added to the reaction; and “max” stands for the fluorescence reading of the sample with DMSO added as a control.
2.7.3 The date were imported into MS Excel and subjected to curve fitting using XLFit excel add-in version 5.4.0.8 and a fitting formula: Y=Bottom+(Top−Bottom)/(1+(IC50/X)^HillSlope).

[1] = test system: TGFβ-ALK5-SMAD2/3 signaling pathway in Luc-Smad2/3-NIH3T3 cells; assay: In vitro cell luciferase assay in Luc-Smad2/3-NIH3T3 cells stimulated with TGFβ1; assay type: cell-based; conditions: Mus musculus; TGFβ1 4 ng/mL, 2% FBS medium, luciferase chemiluminescence
Procedure: Test compounds: For the compounds of the present disclosure prepared in the above examples, each compound was prepared into 4 mM using DMSO. Then, a 4-fold serial dilution was made to obtain 20000.00 nM, 5000.00 nM, 1250.00 nM, 312.5 nM, 78.125 nM, 19.53 nM, 4.88 nM and 1.22 nM successively.
Luc-Smad2/3-NIH3T3 mouse fibroblasts (engineered to overexpress SMAD2,3-responsive promoter) were provided by a laboratory of China Pharmaceutical University.
Reagents: DMEM, purchased from Invitrogen, US; FBS, purchased from Invitrogen, US; DMSO, purchased from Sigma, US; Glo Lysis Buffer, purchased from Progema, US; Bright-Glo Luciferase assay system, purchased from Promega, US; and TGFβ, purchased from PeproTech, US.
Instruments: MD SpectraMaX M3 multifunctional enzyme reader, purchased from Molecular Devices, US.
Cell recovery: The cells were dissolved by placing in a […] water bath, then transferred to a 15 mL of pre-warmed culture medium, and centrifuged at 1000 rpm for 5 minutes. After the culture medium was discarded, the cells were resuspend in 15 mL of fresh culture medium, transferred to a 10 cm dish, and placed in an incubator at 37° C. with 5% CO2 for culture. After 24 hours, the culture medium for the cells was changed with a fresh culture medium.
Cell passage: The recovered cells were transferred to a 50 mL sterile centrifuge tube and centrifuged at 1000 rpm for 5 minutes. The culture medium was discarded. The evenly dispersed cells was counted, and adjusted to an appropriate cell concentration of 15 mL of fresh culture medium, added to a 10 cm dish, and placed in an incubator at 37° C. with 5% CO2 for culture.
Luc-Smad2/3-NIH3T3 cells were cultured normally in a 10 cm culture dish until the confluence reached 80%-90%. After digestion, they were collected in a 15 mL centrifuge tube, centrifuged at 1000×g for 5 minutes to remove the supernatant, and resuspended with 1 mL of medium, then diluted 10 times and counted. The cells was diluted according to the results from the count, and transferred into a 96-well plate at 4×10^3/cells per well (100 μl of resuspended cells was added in each well).
1-2 mg of the drug was weighed (weighed in advance), and prepared into a 4 mM stock solution using DMSO. After 24 hours, the culture medium was removed. The drug was diluted with 2% FBS culture medium. 100 μl of the 1× drug solution was added to make the final concentration of the drug to be 20000.00 nM, 5000.00 nM, 1250.00 nM, 312.5 nM, 78.125 nM, 19.53 nM, 4.88 nM, and 1.22 nM. TGFβ1 was present in each well at a final concentration of 4 ng/mL, and diluted with 2% FBS culture medium together with the compounds.
The Glo Lysis Buffer and the Bright-glo luciferase assay system as well as the cells were equilibrated to room temperature. After the cell supernatant was removed, the cells were dissolved evenly by adding 100 μl of the Glo Lysis Buffer to each well with shaking slowly, and lysed at room temperature for 5 minutes. After that, to each well, 100 μl of the Bright-glo luciferase assay system was added to incubate the cells for 5 minute at room temperature with shaking for 2 minutes. Then, 180 μl of the supernatant was transferred to a white bottom 96-well plate to detect chemiluminescence signal. The detection condition was 1 s.
2.3 Data processing: Graphpad Prism 5 software was used to perform nonlinear curve fitting and data analysis to obtain IC50 by fitting.

Structure (SMILES): CC(C)(O)c1cc(Nc2ccc3c(Oc4cn(C5CC5)nc4C4CCOCC4)ccnc3c2)ccn1 [Example 1, 2-(4-((4-((1-cyclopropyl-3-(tetrahydro-2H-pyran-4-yl)-1H-pyrazol-4-yl)oxy)quinolin-7-yl)amino)pyridin-2-yl)propan-2-ol]
- IC50 (ALK5): 120 nM
- IC50 [1]: 200 nM

Structure (SMILES): c1cc(Oc2cn(C3CC3)nc2C2CCOCC2)c2ccc(N3CCOCC3)cc2n1 [Example 2, 4-(4-((1-cyclopropyl-3-(tetrahydro-2H-pyran-4-yl)-1H-pyrazol-4-yl)oxy)quinolin-7-yl)morpholine]
- IC50 (ALK5): 98 nM
- IC50 [1]: 150 nM

Structure (SMILES): FC(F)(F)c1nnc2n1CCN(c1ccc3c(Oc4cn(C5CC5)nc4C4CCOCC4)ccnc3c1)C2 [Example 3, 4-((1-cyclopropyl-3-(tetrahydro-2H-pyran-4-yl)-1H-pyrazol-4-yl)oxy)-7-(3-(trifluoromethyl)-5,6-dihydro-[1,2,4]triazolo[4,3-a]pyrazin-7(8H)-yl)quinoline]
- IC50 (ALK5): 80 nM
- IC50 [1]: 102 nM

Structure (SMILES): O=S1(=O)CCN(c2ccc3c(Oc4cn(C5CC5)nc4C4CCOCC4)ccnc3c2)CC1 [Example 4, 4-(4-((1-cyclopropyl-3-(tetrahydro-2H-pyran-4-yl)-1H-pyrazol-4-yl)oxy)quinolin-7-yl)thiomorpholine-1,1-dioxide]
- IC50 (ALK5): 250 nM
- IC50 [1]: 140 nM

Structure (SMILES): CC1(O)CCN(c2ccc3c(Oc4cn(C5CC5)nc4C4CCOCC4)ccnc3c2)CC1 [Example 5, 1-(4-((1-cyclopropyl-3-(tetrahydro-2H-pyran-4-yl)-1H-pyrazol-4-yl)oxy)quinolin-7-yl)-4-methyl piperidin-4-ol]
- IC50 (ALK5): 110 nM
- IC50 [1]: 133 nM

Structure (SMILES): c1cc(Oc2cn(C3CC3)nc2C2CCOCC2)c2ccc(-c3cn[nH]c3)cc2n1 [Example 8, 4-((1-cyclopropyl-3-(tetrahydro-2H-pyran-4-yl)-1H-pyrazol-4-yl)oxy)-7-(1H-pyrazol-4-yl)quinoline]
- IC50 [1]: 92 nM

Structure (SMILES): CS(=O)(=O)n1cc(-c2ccc3c(Oc4cn(C5CC5)nc4C4CCOCC4)ccnc3c2)cn1 [Example 9, 4-((1-cyclopropyl-3-(tetrahydro-2H-pyran-4-yl)-1H-pyrazol-4-yl)oxy)-7-(1-(methylsulfonyl)-1H-pyrazol-4-yl)quinoline]
- IC50 [1]: 101 nM

Structure (SMILES): CS(=O)(=O)CCn1cc(-c2ccc3c(Oc4cn(C5CC5)nc4C4CCOCC4)ccnc3c2)cn1 [Example 10, 4-((1-cyclopropyl-3-(tetrahydro-2H-pyran-4-yl)-1H-pyrazol-4-yl)oxy)-7-(1-(2-(methylsulfonyl)ethyl)-1H-pyrazol-4-yl)quinoline]
- IC50 [1]: 90 nM

Structure (SMILES): CC(C)(O)Cn1cc(-c2ccc3c(Oc4cn(C5CC5)nc4C4CCOCC4)ccnc3c2)cn1 [Example 11, 1-(4-(4-((1-cyclopropyl-3-(tetrahydro-2H-pyran-4-yl)-1H-pyrazol-4-yl)oxy)quinolin-7-yl)-1H-pyrazol-1-yl)-2-methylpropan-2-ol]
- IC50 [1]: 96 nM

Structure (SMILES): CC(C)n1cc(-c2ccc3c(Oc4cn(C5CC5)nc4C4CCOCC4)ccnc3c2)cn1 [Example 12, 4-((1-cyclopropyl-3-(tetrahydro-2H-pyran-4-yl)-1H-pyrazol-4-yl)oxy)-7-(1-isopropyl-1H-pyrazol-4-yl)quinoline]
- IC50 [1]: 77 nM

Structure (SMILES): FC(F)(F)Cn1cc(-c2ccc3c(Oc4cn(C5CC5)nc4C4CCOCC4)ccnc3c2)cn1 [Example 13, 4-((1-cyclopropyl-3-(tetrahydro-2H-pyran-4-yl)-1H-pyrazol-4-yl)oxy)-7-(1-(2,2,2-trifluoroethyl)-1H-pyrazol-4-yl)quinoline]
- IC50 [1]: 81 nM

Structure (SMILES): Cn1cc(-c2ccc3c(Oc4cn(C5CC5)nc4-c4ccccc4)ccnc3c2)cn1 [Example 14, 4-((1-cyclopropyl-3-phenyl-1H-pyrazol-4-yl)oxy)-7-(1-methyl-1H-pyrazol-4-yl)quinoline]
- IC50 [1]: 46 nM

Structure (SMILES): NS(=O)(=O)c1ccc(-c2ccc3c(Oc4cn(C5CC5)nc4C4CCOCC4)ccnc3c2)cc1 [Example 20, 4-(4-((1-cyclopropyl-3-(tetrahydro-2H-pyran-4-yl)-1H-pyrazol-4-yl)oxy)quinolin-7-yl)benzenesulfonamide]
- IC50 [1]: 75 nM

Structure (SMILES): CS(=O)(=O)c1ccc(-c2ccc3c(Oc4cn(C5CC5)nc4C4CCOCC4)ccnc3c2)cn1 [Example 21, 4-((1-cyclopropyl-3-(tetrahydro-2H-pyran-4-yl)-1H-pyrazol-4-yl)oxy)-7-(6-(methylsulfonyl)pyridin-3-yl)quinoline]
- IC50 [1]: 49 nM

Structure (SMILES): CS(=O)(=O)N1CC=C(c2ccc3c(Oc4cn(C5CC5)nc4C4CCOCC4)ccnc3c2)CC1 [Example 22, 4-((1-cyclopropyl-3-(tetrahydro-2H-pyran-4-yl)-1H-pyrazol-4-yl)oxy)-7-(1-(methylsulfonyl)-1,2,3,6-tetrahydropyridin-4-yl)quinoline]
- IC50 [1]: 56 nM

Structure (SMILES): FC(F)(F)c1nc2n(n1)CCN(c1ccc3c(Oc4cn(C5CC5)nc4C4CCOCC4)ccnc3c1)C2 [Example 23, 4-((1-cyclopropyl-3-(tetrahydro-2H-pyran-4-yl)-1H-pyrazol-4-yl)oxy)-7-(2-(trifluoromethyl)-5,6-dihydro-[1,2,4]triazolo[1,5-a]pyrazin-7(8H)-yl)quinoline]
- IC50 [1]: 200 nM
